Experimental findings from patent publication US5476848A, “14B(R) isomers of novel tetracyclic compounds having anti-allergic and anti-asthmatic activities, and their use” (Sankyo Company, Limited, priority 1989, dated 1995) are described below.

For one data set, the system named is pentobarbital anesthesia. Briefly: Prolongation of pentobarbital anesthesia (Test Example 3). Format: in vivo, guinea pig (male Hartley). Particulars: for AD (oral dose which prolonged the pentobarbital-induced anesthesia by 15%, AD15): 1 hr before pentobarbital 30 mg/kg s.c. The text has this: Sedation is the side effect with the highest incidence in histamine (H1)-blockers and anti-allergic drugs with an H1 blocking effect (Douglas, W. W. (1980) The Pharmacological Basis of Therapeutis, A. Goodman Gilman, L. S. Goodman, A. Gilman (eds), Macmillian, New York) and therefore anti-allergic drugs which overcome this disadvantage are needed. We investigated the effects of test compounds on pentobarbital anesthesia as a method for measuring incidence of sedation in animals.
Prolongation effects on anesthesia are usually investigated with ethanol or thiopental (in mice and rats). However, we investigated it with pentobarbital in guinea pigs because our data with pentobarbital corresponded well with the clinical data, that is, the incidence of sedation of other anti-allergic drugs in clinical use.
Sodium Pentobarbital (30 mg/kg) was subcutaneously injected into the backs of male Hartley guinea pigs weighing approximately 400 g, and the duration of postural reflex abolition was then measured.
Test compounds were administered orally 1 hr before the pentobarbital injection. The prolongation rate obtained with the test compound was calculated by comparison to the control (the duration of pentobarbital anesthesia in animals untreated with the test compounds). In addition, the AD15 value (the oral dose which prolonged the pentobarbital-induced anesthesia by 15%) was determined, and the results are shown in the table.

In data set [1] the test system is Antigen-induced Bronchoconstriction. As to the kind of experiment: Effect on antigen-induced bronchoconstriction in sensitized guinea pigs (Test Example 2"). Format: in vivo, guinea pig (male Hartley). Particulars: Cavia porcellus, po, read-out: Inhibitory rate; for inhibition at 0.025 mg/kg: 0.025 mg/kg (Table 4"); for inhibition at 0.1 mg/kg: 0.1 mg/kg (Table 4"). Here is the method:
(§1) The test animals used were male guinea pigs of the Hartley strain (weighing about 400 to 500 g). These animals were sensitized according to Morris' method [H. R. Morris; Br. J. Pharmac., 67, 179-184 (1979)]. The guinea pigs were injected twice subcutaneously and intraperitoneally, each time with 25 mg of egg albumin (grade 5, Sigma) at weekly intervals. 7 days after the second of these weekly injections, the animals were fasted for one day and then exposed to an aerosol of egg albumin (10 mg/ml). All of the animals so exposed responded with convulsions, indicating respiratory distress due to airway constriction, within 6 minutes.
60 minutes before the egg albumin challenge, one of the test compounds shown in the following Table 4" was administered orally to each of the animals.

In data set [2] the test system is Passive Cutaneous Anaphylaxis (PCA). Briefly: Inhibitory effect on passive cutaneous anaphylaxis (PCA) in rats (Test Example 1"). Particulars: Rattus norvegicus, po, read-out: Inhibitory rate; for inhibition at 0.05 mg/kg: 0.05 mg/kg (Table 3"); for inhibition at 0.2 mg/kg: 0.2 mg/kg (Table 3"); for inhibition at 3.1 mg/kg: 3.1 mg/kg (Table 3"). The format is in vivo, rat (male SD). Here is the method:
Male SD rats (5 weeks old) were used as the test animals in groups, each containing 4 animals. The rats were sensitized by intradermal injection of 0.05 ml of the diluted antiserum solution in the dorsal position. […] 60 minutes later they were injected in the caudal vein with 5 ml/kg body weight of physiological saline containing 0.4% w/v of egg albumin and 1.0% w/v of Evans Blue.
(§2) The inhibitory rate was calculated by the following equation.
(§3) Inhibitory rate (%)=(1-B/A)×100
(§4) A: amount of exuded dye in the control group
(§5) B: amount of exuded dye in the test group.

The next data set has as its system eosinophil accumulation. As to the kind of experiment: Inhibitory effect on antigen induced eosinophil accumulation (Test Example 4).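 Note: oral dose 0.1 mg/kg.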 The format is in vivo, guinea pig (male Hartley). Particulars: Cavia porcellus, Eosinophil, po, 1 hr before antigen challenge, BALF 24 hr after. Here is the method:
Male Hartley guinea pigs weighing approximately 400 g were sensitized with ovalbumin by the method described by Engineer et al. (Engineer, D. M. et al., J. Pharmacol., 62, 61-66 (1978)), and the number of eosinophils infiltrating into the bronchoalveolar space due to antigen challenge was examined.
Briefly, the animals were exposed to the antigen (ovalbumin) for 6 min. At 24 hr. after antigen challenge, the guinea pigs were anesthetized with pentobarbital (30 mg/kg, i.p.). The trachea was cannulated by a disposable intravenous catheter, and the airway lumen (especially in the right posterior lobe) was washed with 0.9% saline (10 ml/kg) kept at 37° C. The bronchoalveolar lavage fluid (BALF) from each animal was centrifuged (150 g for 10 min at 4° C.). After removing the supernatant, the cell pellet was resuspended in HBSS (Hank's balanced solution) and a total cell count was performed using a standard hemocytometer. Differential cell counts were done on smears fixed in methanol and stained with Wright-Giemsa solution, and by light microscopy under oil immersion (×1000). The proportion of eosinophil population was expressed as a percentage of total cells, and this ratio together with the total cell count was used to calculate the total number of eosinophils. The percent inhibition of the test compounds which was administered 1 hr before antigen challenge, was calculated as follows:
Percent inhibition=[1-(C-A)/(B-A)]×100
A: negative control: mean value of cell counts in BALF from the animals with inhaled saline
B: positive control: mean value of cell counts in BALF from the animals 24 h after antigen challenge
C: cell counts of BALF for the animals pretreated with a test compound 24 h after antigen challenge

Another data set deals with eosinophil chemotaxis. As to the kind of experiment: Inhibitory effect of eosinophil chemotaxis to zymosan-activated serum (Test Example 4). The format is cell-based, guinea pig. Particulars: Cavia porcellus, Eosinophil, 0.1 μg/ml; ZAS. The text has this: Eosinophils were harvested from the peritoneal cavity of polymyxin B-treated guinea pigs (body weight, approx. 400 g) according to the method described by Pincus (Pincus, S. H. et al.: Blood, 52, 127-134 (1978)). The eosinophils were separated and purified by Ficoll-paque (Pharmacia) density gradient centrifugation. Then, the eosinophil chemotaxis to zymosan-activated serum (ZAS) was investigated by a modification of the Boyden micropore filter technique (Gosset, P. et al.: Clin. Exp. Immunol., 65, 654-663 (1986)). Briefly, the assay was carried out in a 48-well microchemotaxis assembly (Neuroprobe; Cabin John, Md., U.S.A.). Cell suspensions were adjusted to 2.5×10^5 /50 μl, and placed in the upper chamber separated from the chemoattractant (ZAS) solution in the lower chamber by a 3 μm pore size polycarbonate membrane filter (Nucleopore Co., Pleasanton, U.S.A.). The cells were incubated for 10 min at 37° C. with the test compounds, prior to their addition to the chemotaxis chamber. Migration was carried out at 37° C. in humidified air with 5% CO2 for 2 h. After the incubation, the migrated eosinophils in the lower Chamber were counted by a hemocytometer.
The percentage inhibition obtained with the test compound was calculated by comparison to the positive control (migration of non-treated cells in response to the ZAS), according to the formula:
Percent inhibition=[1-(A/B)]×100
A: (migration with a test compound)-(spontaneous migration)
B: (positive control migration)-(spontaneous migration)

The subject of data set [3] is Passive Cutaneous Anaphylaxis (PCA). Briefly: Inhibitory effect on passive cutaneous anaphylaxis (PCA) in rats (Test Example 1). The format is in vivo, rat (male SD). Particulars: Rattus norvegicus, po, read-out: Inhibitory rate. Here is the method:
Male SD rats (5 weeks old) were used as the test animals in groups, each containing 4 animals. The rats were sensitized by intradermal injection of 0.05 ml of the diluted antiserum solution in the dorsal position. 48 hours after this injection, a suspension of the test compound in an aqueous 0.5% w/v tragacanth solution was orally administered to the rats, fasted for one day, and 60 minutes later they were injected in the caudal vein with 5 ml/kg body weight of physiological saline containing 0.4% w/v egg albumin and 1.0% w/v Evans Blue.
as §2, §3, §4, §5

Data set [4] concerns Antigen-induced Bronchoconstriction. As to the kind of experiment: Effect on antigen-induced bronchoconstriction in sensitized guinea pigs (Test Example 2). Format: in vivo, guinea pig (male Hartley). Particulars: Cavia porcellus, po, 60 min before challenge, read-out: Inhibitory rate. The method, then:
as §1, with “were” for “were injected twice”, “intraperitoneally injected twice,” for “intraperitoneally,”
60 minutes before the egg albumin challenge, one of the test compounds shown in the following Table 5 was administered orally to each of the animals.

Where a name gives a salt, the structure may show the parent alone.

With `O=C(O)CCCN1CCN2c3ccccc3Cc3ccccc3C2C1` (racemic) [Example 22, 4-(1,2,3,4,10,14b-Hexahydrodibenzo[c,f]pyrazino[1,2-a]azepin-2-yl)butanoic acid], the “AD (oral dose which prolonged the pentobarbital-induced anesthesia by 15%, AD15)” value in the data set on pentobarbital anesthesia (po, guinea pigs) is 59 mg/kg.

Consider `O=C(O)CCCN1CCN2c3ccccc3Cn3cccc3[C@H]2C1` [3"], for which, in data set [1], the inhibition at 0.025 mg/kg turned out to be 60% and the inhibition at 0.1 mg/kg was determined as 100%. Besides, in data set [2], the inhibition at 0.05 mg/kg is 66% and the inhibition at 0.2 mg/kg stood at 72%.

The compound `O=C(O)CCCN1CCN2c3ccccc3Cc3ccccc3[C@@H]2C1` [22 HCl R-isomer] gave an inhibition at 0.1 mg/kg with eosinophil accumulation of 59%. Moreover, the inhibition at 0.1 µg/mL in the data set on eosinophil chemotaxis worked out at 53%. For the same compound, in data set [1], the inhibition at 0.025 mg/kg turned out to be 40% and the inhibition at 0.1 mg/kg worked out at 80%. The inhibition at 0.4 mg/kg in data set [1] (0.4 mg/kg (Table 4")) came out at 100%. Further, in data set [2], the inhibition at 0.05 mg/kg came to 55% and the inhibition at 0.2 mg/kg was found to be 67%.

Regarding `O=C(O)CCCN1CCN2c3ccccc3Cc3ccccc3[C@@H]2C1` [22 R-isomer], the “prolongation of anesthesia side effect” value in the data set with pentobarbital anesthesia (in words) is on record as “extremely low”. For the same compound, in the data set on pentobarbital anesthesia (po, guinea pigs), the “AD (oral dose which prolonged the pentobarbital-induced anesthesia by 15%, AD15)” value is given as 123 mg/kg. Further, the “amount of R-isomer required as compared with the racemate for the same prolongation time” value with pentobarbital anesthesia (ratio to racemate, po, guinea pigs) is listed as “about double”.

Turning to `O=C(O)CCCN1CCN2c3ccccc3Cc3ccccc3[C@H]2C1` [22 S-isomer], in the data set with pentobarbital anesthesia (po, guinea pigs), the “AD (oral dose which prolonged the pentobarbital-induced anesthesia by 15%, AD15)” value was determined as 75 mg/kg.

In the case of `OCCOCCOCCN1CCN2c3ccccc3Cc3ccccc3C2C1` (stereo not shown) [Example 7], in data set [3], the inhibition at 0.8 mg/kg turned out to be 50% and the inhibition at 3.1 mg/kg was found to be 57%. In addition, the inhibition at 12.5 mg/kg in data set [3] (12.5 mg/kg) came to 72%. Moreover, in data set [4], the inhibition at 0.4 mg/kg turned out to be 100%.

Turning to `OCCCN1CCN2c3ccccc3Cc3ccccc3C2C1` (stereo not shown) [Example 16, 3-(1,2,3,4,10,14b-Hexahydrodibenzo[c,f]pyrazino[1,2-a]azepin-2-yl)propanol], in data set [3], the inhibition at 0.8 mg/kg turned out to be 48% and the inhibition at 3.1 mg/kg was 63%. Moreover, in data set [4], the inhibition at 0.1 mg/kg amounted to 60% and the inhibition at 0.4 mg/kg was 100%.

`NC(=O)COCCN1CCN2c3ccccc3Cc3ccccc3C2C1` (stereo not shown) [Example 26, 2-(1,2,3,4,10,14b-Hexahydrodibenzo[c,f]pyrazino[1,2-a]azepin-2-yl)ethoxyacetamide]: in data set [3], the inhibition at 0.05 mg/kg stood at 44% and the inhibition at 0.2 mg/kg amounted to 63%. The inhibition at 0.4 mg/kg in data set [4] came out at 80%.

As for `O=C(O)COCCN1CCN2c3ccccc3Cc3ccccc3[C@H]2C1` [Example 59, (S)-2-(1,2,3,4,10,14b-Hexahydrodibenzo[c,f]pyrazino[1,2-a]azepin-2-yl)ethoxyacetic Acid], in data set [3], the inhibition at 0.05 mg/kg came to 59% and the inhibition at 0.2 mg/kg is 74%. Moreover, the inhibition at 0.05 mg/kg in data set [4] (0.05 mg/kg) is 60%.

Consider `O=C(O)COCCN1CCN2c3ccccc3Cc3ccccc3[C@@H]2C1` [Example 65, (R)-2-(1,2,3,4,10,14b-hexahydrodibenzo[c,f]pyrazino[1,2-a]azepin-2-yl)ethoxyacetic acid monohydrate], for which the inhibition at 0.05 mg/kg in data set [3] is 45%. Besides, in data set [3] (0.4 mg/kg), the inhibition at 0.4 mg/kg was determined as 58%. Also, the inhibition at 0.1 mg/kg in data set [4] came to 60%.

Take `OCCN1CCN2c3ccccc3Cn3cccc3C2C1` (stereo not shown) [Prior art compound D, 2-(2-hydroxyethyl)-1,3,4,14b-tetrahydro-2H, 10H-pyrazino[1,2-a]pyrrolo[2,1-c][1,4]benzodiazepine, reference compound]: the inhibition at 3.1 mg/kg in data set [3] and in data set [2] was 30% each time.

For the compound `NC(=O)CCN1CCN2c3ccccc3Cc3ccccc3C2C1` (stereo not shown) [Prior art compound F, 2-(2-carboxamidoethyl)-1,2,3,4,10,14b-hexahydrodibenzo[c,f]pyrazino[1,2-a]azepine, reference compound], the inhibition at 3.1 mg/kg in data set [3] and in data set [2] was 52% throughout.
